For two compounds, MIC results are on record in patent US20230124862A1, “BISMUTH THIOL COMPOUNDS AND COMPOSITIONS AND METHODS OF TREATING MICROBIAL CO-INFECTIONS” (Microbion Corporation, priority 2020, published 2023).

Converted amounts (≈) assume the structure as drawn.

The subject of test [1] is P. aeruginosa and A. baumannii. In words: Broth microdilution MIC (Example 11). The format is cell-based, Pseudomonas aeruginosa, Acinetobacter baumannii. Conditions: read-out: MIC values.
Another test concerns Enterobacteriaceae. Put plainly: Broth microdilution MIC (Example 11). In kind it is cell-based, E. coli, K. pneumoniae, Enterobacter cloacae. (In general: Dilution methods test growth across graded concentrations, often in twofold steps.)

As to `CC(S)C(C)S.[Bi]` (stereo not drawn) [BisBDT, bismuth-2,3-butanedithiol], the MIC (as a rule, the lowest concentration found to suppress growth) in test [1] is 0.5 to 2 µg/mL.
Consider `C[C@@H](O)[C@H]1C(=O)N2C(C(=O)O)=C(S[C@@H]3CN[C@H](C(=O)N(C)C)C3)[C@H](C)[C@H]12` [MEM], for which the MIC is over 64 µg/mL with Enterobacteriaceae (E. cloacae (MMX 5981), NDM-1, LVX-R, MEM-R, CAZ-R, GEN-R); 0.03 µg/mL (≈ 0.0782 µM) against Enterobacteriaceae (E. coli (MMX 102), QC); 32 µg/mL (≈ 83.4 µM) against Enterobacteriaceae (E. coli (MMX 5980), NDM-1, LVX-R, MEM-R, CAZ-R, GEN-R); 0.03 µg/mL (≈ 0.0782 µM) with Enterobacteriaceae (E. coli (MMX 8423), ESBL, LVX-R, CAZ-R, GEN-R); 0.03 µg/mL (≈ 0.0782 µM) in the test on Enterobacteriaceae (E. coli (MMX 8424), ESBL, CAZ-R); 0.015 µg/mL (≈ 0.0391 µM) against Enterobacteriaceae (E. coli (MMX 8425), ESBL, LVX-R, CAZ-R, GEN-R). Besides, the minimum inhibitory concentration (MIC) was over 64 µg/mL in the test with Enterobacteriaceae (K. pneumoniae (MMX 4622), KPC-2, MEM-R, CAZ-R); over 64 µg/mL in the test on Enterobacteriaceae (K. pneumoniae (MMX 4623), KPC-2, MEM-R, CAZ-R, GEN-R); over 64 µg/mL in the test on Enterobacteriaceae (K. pneumoniae (MMX 4653), KPC-3, LVX-R, MEM-R, CAZ-R); 32 µg/mL (≈ 83.4 µM) with Enterobacteriaceae (K. pneumoniae (MMX 4683), KPC-2, LVX-R, MEM-R, CAZ-R); 8 µg/mL (≈ 20.9 µM) in the test on Enterobacteriaceae (K. pneumoniae (MMX 4684), ESBL, MEM-R); 4 µg/mL (≈ 10.4 µM) against Enterobacteriaceae (K. pneumoniae (MMX 4685), ESBL, LVX-R, MEM-R, CAZ-R). Moreover, the MIC is 32 µg/mL (≈ 83.4 µM) with Enterobacteriaceae (K. pneumoniae (MMX 4694), KPC-3, LVX-R, MEM-R, CAZ-R) and over 64 µg/mL in the test with Enterobacteriaceae (K. pneumoniae (MMX 5979), NDM-1, LVX-R, MEM-R, CAZ-R, GEN-R).
